In this test the test system is PAF-induced aggregation of human thrombocytes. The test is described as follows: Inhibition of PAF-induced blood platelet aggregation in vitro. Type of test: cell-based. The conditions noted are these: thrombocyte-rich plasma, aggregation induced with PAF 5×10^-8 M, concentration giving a 50% inhibition of aggregation, read-out: PAF-Antag. IC50. As for the experimental part: 1. Inhibition of blood platelet aggregation in vitro
The PAF-induced aggregation of human thrombocytes in vitro is used to determine PAF-antagonistic activity. To obtain thrombocyte-rich plasma (TRP) blood is taken from an uncongested vein using a plastic syringe containing 3.8% sodium citrate solution. The ratio of sodium citrate solution to blood is 1:9. After careful mixing the citrate blood is centrifuged for 20 minutes at 150 g (1200 rpm). The thrombocyte aggregation is measured using the method devised by Born and Cross (G. V. R. Born and M. J. Cross, J. Physiol. 168, 178 (1963)), by adding an aggregation initiator (PAF) to the TRP with constant stirring.
The test substance is added 2 to 3 minutes before aggregation is initiated in a volume of 10 μl. Either distilled water, ethanol and/or dimethylsulphoxide (each in suitable concentrations) can be used as solvent.
Control mixtures contain corresponding volumes of these solvents. After the initial absorption has been recorded (2 to 3 minutes) aggregation is induced with PAF (5×10^-8 M).
The maximum of the first aggregation wave is used to assess the effects of the substance. The PAF-induced maximum absorption rate (=maximum aggregation×100%) is tested at the same time in a parallel mixture (=control mixture in one of the channels of the two-channel aggregometer) as each test mixture (second channel) and is used as a 100% value.
The aggregation value attained under the effect of the test substance is given as a percentage of the control value, i.e. less than 100% in the case of an inhibition of aggregation and over 100% in the case of an increase.
Each test substance is investigated at concentrations of from 10^-3 to 10^-8 M with a random sampling of n=4 with regard to an inhibitory effect on the PAF-induced thrombocyte aggregation. Then a concentration-activity curve is drawn up using 3 concentrations and the IC50 is determined (concentration giving a 50% inhibition of aggregation).

SMILES strings stand for the structures.

This note sets out measurements from patent US4623646A, “PAF-antagonistic diazepines, methods of use” (Boehringer Ingelheim KG, priority 1984, dated 1986).

The IC50 is the concentration at which inhibition is half-maximal. With `CN1C(=O)CN=C(c2ccccc2)c2cc(Cl)ccc21` [compound 1], the IC50 was found to be 250 µM.
The figure for `O=C1CN=C(c2ccccc2)c2cc([N+](=O)[O-])ccc2N1` [compound 2] is 220 µM.
The figure for `O=C1CN=C(c2ccccc2Cl)c2cc([N+](=O)[O-])ccc2N1` [compound 3] is 80 µM; for `CN1C(=O)CN=C(c2ccccc2F)c2cc([N+](=O)[O-])ccc21` [compound 4] it is 46 µM; for `CCN(CC)CCN1C(=O)CN=C(c2ccccc2F)c2cc(Cl)ccc21` [compound 5] it is 80 µM.
The figure for `CN1C(=O)CN=C(c2ccccc2)c2cc([N+](=O)[O-])cnc21` [compound 7] is 380 µM; for `O=C1CN=C(c2ccccc2)c2cc([N+](=O)[O-])cnc2N1` [compound 8] it is 250 µM.
`O=C1CN=C(c2ccccc2Cl)c2ccsc2N1` [compound 9]: the 50% inhibitory concentration (IC50) came out at 760 µM.
The figure for `CCc1cc2c(s1)NC(=O)CN=C2c1ccccc1Cl` [compound 10] is 325 µM; for `CN1C(=O)CN=C(c2ccccc2Cl)c2cc(Br)sc21` [compound 11] it is 170 µM; for `Cc1csc2c1C(c1ccccc1)=NCC(=O)N2` [compound 12] it is 280 µM.
Turning to `CN1C(=O)CN=C(c2ccccc2Cl)c2cc([N+](=O)[O-])sc21` [compound 13], the IC50 came to 200 µM.
The figure for `O=C1CN=C(c2ccccc2Cl)c2c(sc3c2CCCS3)N1` [compound 14] is 234 µM.
As to `CCn1nc(C)c2c1NC(=O)CN=C2c1ccccc1Cl` [compound 15], the IC50 stood at 870 µM.
The figure for `O=C1CN=C(c2ccccc2Cl)c2sccc2N1` [compound 16] is 500 µM; for `N#CCCn1nnc2c1NC(=O)CN=C2c1ccccc1Cl` [compound 17] it is 1000 µM.
In the case of `CN1CCN=C(c2ccccc2)c2c(Cl)nsc21` [compound 18], the IC50 turned out to be 110 µM.
The figure for `S=C1CN=C(c2ccccc2)c2cc(Cl)ccc2N1` [compound 19] is 620 µM; for `CCn1nc(C)c2c1C(c1ccccc1)=NCC(=S)N2` [compound 20] it is 250 µM.
In the case of `CN1CCN=C(c2ccccc2Cl)c2cc(Cl)ccc21` [compound 21], the IC50 was 360 µM.
Regarding `Cc1ccc2c(c1)C(c1ccccc1Cl)=NCC(=O)N2` [compound 22], the IC50 is 580 µM.
As to `CCC1N=C(c2ccccc2Cl)c2ccsc2NC1=O` (centres unmarked) [compound 23], the IC50 came out at 810 µM.
The figure for `CCC1N=C(c2ccccc2Cl)c2cc(Br)sc2NC1=O` (centres unmarked) [compound 24] is 530 µM; for `COc1ccc2c(c1)C(c1ccccc1Cl)=NCC(=O)N2` [compound 25] it is above 100 µM.
Take `O=C1CN=C(c2ccccc2Cl)c2c(sc3c2CCOC3)N1` [compound 26]: the IC50 turned out to be 79 µM.
The figure for `COc1cccc2c1NC(=O)CN=C2c1ccccc1Cl` [compound 27] is 356 µM; for `O=C1CN=C(c2ccccc2Cl)c2cc(Cl)ccc2N1` [compound 28] it is above 100 µM.
The figure for `COC(=O)c1ccc2c(c1)C(c1ccccc1Cl)=NCC(=O)N2` [compound 29] is 120 µM.
The figure for `Cc1nc2c(n1C)C(c1ccccc1)=NCC(=O)N2` [compound 30] is above 50 µM.
